Results reported in patent EP0097546A1, “Benzhydrylsulfinyl ethyl amines, process for their preparation and their use in therapy” (LABORATOIRE L. LAFON Société anonyme dite:, priority 1982, dated 1984).

Key:
Type in all cases: in vivo
souris mâle = assay: Toxicity, intraperitoneal route; conditions: male mouse, I.P. route
Protocol: (§1) On a résumé ci-après les résultats des essais neuro- pshychopharmacologiques qui ont été ertrepris avec le CRL 40883 (produit de l'exemple 1). Dans ces essais le CRL 40883 en solution dans de l'eau distillée à pH 5 a été administré par voie intra- péritonéale sous un volume de 20 ml/kg chez la souris mâle et sous un volume de 5 ml/kg chez le rat mâle.
• Chez la souris mâle la DL-30 par voie I.P. du CRL 40883 est de l'ordre de 250 mg/kg.

souris = assay: Global behaviour and reactivities in the mouse; conditions: i.p.
Protocol: as §1
(§2) • Des lots de 6 animaux sont observés avant, puis 15 minutes, 30 minutes, 1 h , 2 h , 3 h et 24 h après l'administration de CRL 40 883.

rat = assay: Global behaviour and reactivities in the rat; conditions: i.p.
Protocol: as §1, §2

[1] = system: hypothermies induites par l'apomorphine; assay: Antagonism of apomorphine-induced hypothermia; conditions: i.p.
Protocol: as §1

[2] = system: hypothermies induites par la réserpine; assay: Antagonism of reserpine-induced hypothermia; conditions: i.p.
Protocol: as §1

[3] = system: hypothermies induites par l'oxotrémorine; assay: Antagonism of oxotremorine-induced hypothermia; conditions: i.p.
Protocol: as §1

[4] = system: stéréotypies amphétaminiques; assay: Amphetamine stereotypies; conditions: i.p.
Protocol: as §1

groupes de souris = assay: Intergroup aggressiveness test; conditions: groups of mice, i.p., doses 16 mg/kg and 64 mg/kg
Protocol: as §1

CNCC[S+]([O-])C(c1ccccc1)c1ccccc1 (centres unmarked) [CRL 40883, chlorhydratede N-[2-(benzhydrylsulfinyl)-éthyl]-méthylamine]
DL-30 (souris mâle): ~250 mg/kg
comportement et réactivités (souris; doses 64 mg/kg, 16 mg/kg, 4 mg/kg and 1 mg/kg, observed 15 min to 24 h): n'entraîne pas de modifications sensibles du comportement et des réactivités
sédation (souris; mainly at 128 mg/kg): sédation modérée
réactivité au toucher (rat; 32 mg/kg, lasting 30 minutes): hyporéactivité au toucher
tonus musculaire (rat; 32 mg/kg, lasting 30 minutes): hypotonie musculaire
symptômes (rat; doses 8 mg/kg, 2 mg/kg and 0,5 mg/kg): pas de symptômes particuliers
antagonisme des hypothermies induites par l'apomorphine [1]: antagonisme
antagonisme des hypothermies induites par la réserpine [2]: antagonisme
antagonisme des hypothermies induites par l'oxotrémorine [3]: antagonisme
stéréotypies amphétaminiques [4]: potentialisation des stéréotypies amphétaminiques
nombre de combats (groupes de souris): forte diminution du nombre de combats
